SMILES | melting point [°C]
Cc1ccc(OC2CCC3C4CCC5CC(=O)CCC5(C)C4CCC23C)cc1 (centres undefined) | 148 to 153
COC(=O)CC#N | -13
CC(=O)Nc1ccc(C#N)c(C(F)(F)F)c1 | 170 to 173
C#CC1(O)CCC2(C)C(C1)CC1(OCCO1)C1C3CCC(=O)C3(C)CCC12 (centres undefined) | 308
CN(C)c1ccc(C#N)cc1 | 74
CN1C(=O)CN=C(c2ccccc2F)c2cc([N+](=O)[O-])ccc21 | 166
Cc1cc(C(=O)O)c(C)[nH]1 | 200
CN(C)S(=O)(=O)Oc1ccc(C#N)cc1 | 70 to 73
c1cnc2ncncc2n1 | 140
Oc1ccc2c3c1OC1C(O)C=CC4C(C2)NCCC341 (centres undefined) | 273
Cc1ccc(C=O)c(Br)c1 | 35
CNC=O | -3.2
Oc1cccc2[nH]c3ccccc3c12 | 169 to 173
C=C(C)C(N)=O | 110
Nc1nnc(C2CC2)[nH]1 | 128 to 130
O=C(O)CSc1ccncc1 | 251 to 255
CC(C)C(=NO)C(C)C | 34
S=C=Nc1cc(Cl)c(Cl)cc1Cl | 45
CCCCC=CCCCCCCCCOC(C)=O | 1.3
Cn1nc(O)cc1C(F)(F)F | 114 to 115
O=[N+]([O-])c1cccc(F)c1O | 92.5
Clc1ccc(Br)cn1 | 70
Brc1c[nH]cn1 | 126 to 132
O=C(Cl)c1ccccc1COc1ccccc1 | 49 to 51
O=Cc1ccc(O)c(OC(F)(F)F)c1 | 78

SMILES | melting point [°C]
c1ccc(-c2nc[nH]c2-c2ccccc2)cc1 | 232
ON=C(NN=C(Cl)C(F)(F)F)C(F)(F)F | 119
Cc1cc(N(C)C)nc(Cl)n1 | 87
OC(Cc1ccccc1)C(Cc1ccccc1)=NNc1ccc(Br)cc1 (centres undefined) | 139
COc1ccc(O)c(C(=O)O)c1 | 143
CC(=O)O[C@H](c1ccccc1)C(O)(c1ccccc1)c1ccccc1 | 248 to 252
CC(=O)c1cc(Cl)ccc1O | 53 to 56
O=C(CS)Nc1ccc(F)cc1 | 92 to 94
Nc1ccc(-n2cnc(Cl)c2Cl)cc1 | 104 to 105
N#CC1(C(=O)c2ccccc2)C(c2ccccc2)NC(=O)NC1c1ccccc1 (centres undefined) | 215 to 216
CSC(=NS(=O)(=O)c1ccc(C)cc1)SC | 109 to 110
c1cc2c3c(cccc3c1)-c1nc3ccccc3nc1-2 | 239 to 242
CC1=Nc2ccccc2Sc2c1c(=O)n(-c1ccccc1)c1ccccc21 | 231
COP1(=S)OCc2ccccc2O1 (centres undefined) | 55
CCOC(=O)c1cc(C)n(-c2cc(C)[nH]n2)n1 | 120 to 122
CCN(CC)C(=O)n1cnc(S(=O)(=O)c2c(C)cc(C)cc2C)n1 | 115
CCOC1OC(C(N)=O)=CC(C)C1Br (centres undefined) | 131
COC(=O)C1=C(N)Oc2cc(C)n(CCc3ccccc3)c(=O)c2C1c1cccc([N+](=O)[O-])c1 (centres undefined) | 216
CSCCC=O | -58
Nc1cc(-c2ccccc2)ccc1O | 200
CC(C)(C)C(O)C(=Cc1ccc(Cl)cc1Cl)n1cncn1 (centres undefined) | 148 to 149
CC1(C)CNC(=NN=C(C=Cc2ccc(C(F)(F)F)cc2)C=Cc2ccc(C(F)(F)F)cc2)NC1 | 188
CCc1ccccc1-n1c(C)nc2ccccc2c1=O | 81
N#CC(C#N)=Cc1ccc(O)cc1 | 189
CCC(N)C(=O)O (centres undefined) | 304

SMILES | melting point [°C]
CNC(=O)ON=C1C(Cl)C2CC(C#N)C1C2 (centres undefined) | 144
CN(C)CCC(c1ccc(Br)cc1)c1ccccn1 (centres undefined) | < 25
COC1=CC(c2ccccc2)c2ccccc21 (centres undefined) | 68
COc1ccccc1Oc1ccc(S(=O)(=O)Cl)cc1 | 54 to 56
CC(=O)Nc1ccc(C=NNC(N)=S)cc1 | 225 to 230
O=C(O)C(=Cc1ccccc1)C(=Cc1ccccc1)C(=O)O | 223
C=C1CC1CC(N)C(=O)O (centres undefined) | 282
CCCS(=O)CCC | 22.5
Brc1cccc(Oc2ccccc2)c1 | < 20
CC(=O)CC(=O)Nc1ccc(Cl)cc1 | 132
CC(=O)Oc1ccccc1-c1ccccc1 | 65
Cc1c(CO)cnn1-c1ccc(F)cc1 | 120 to 121
CCOC(=O)CCC(C)C1CCC2C3C(O)C(Br)C4CC(OC(C)=O)CCC4(C)C3CC(OC(C)=O)C12C (centres undefined) | 164 to 167
O=C1CCc2cccc3c2N1CC3 | 112
O=C(O)c1ccc(OCc2ccccc2)cc1 | 189
CC1(C)SC2C(N3C(=O)C(c4ccccc4)NC3(C)C)C(=O)N2C1C(=O)O (centres undefined) | 190
O=C(NCCc1cc([N+](=O)[O-])c(CCNC(=O)c2ccccc2)c([N+](=O)[O-])c1)c1ccccc1 | 217
CCOC(=O)C1=C(C)NC(C)=C(C(=O)OCC)C1c1cccc(OC)c1O | 207
O=C(O)[C@@H]1C[C@H]1c1ccccc1 (relative stereo) | 86 to 92
CC(O)c1ccccc1 (centres undefined) | 20
CCC(C#N)CC#N (centres undefined) | -41
ClC1CCCCC1Cl (centres undefined) | -1.5
Clc1ccc(C2(Cn3cncn3)CC(Br)CO2)c(Cl)c1 (centres undefined) | 84

More lines, now with the values ahead:

melting point [°C] | SMILES
219 | CC(=O)C1(O)CCC2C3C=C(C)C4=CC(=O)CCC4(C)C3CCC21C (centres undefined)
194 to 196 | COc1ccc2c(c1)CCc1c-2[nH]c2ccc(OC)cc12
161 | CC(=O)OC1CC2C3CCC(C(C)CCCC(C)C)C3(C)CCC2C2(C)CCC(=O)CC12O (centres undefined)
167 to 169 | Cn1ccc(-c2cccc(C(=O)O)c2)n1
38.5 | CC1(O)C(=O)CC2CC1C2(C)C (centres undefined)
193 | Cc1nc(NS(=O)(=O)c2ccc(N)cc2)oc1C
114 | Cc1cc(C=O)cc(C)c1O
209 | O=C(c1ccccc1)C1CNc2cc3c(cc2C1)CC(C(=O)c1ccccc1)CN3 (centres undefined)
210 | CC1=C(C(=O)OC(C)(C)C)C(c2ccc3c(c2)OCO3)NC(=O)N1 (centres undefined)
152 to 154 | OCc1ccc(-c2ccsc2)cc1
128 to 130 | ClCc1nnc(-c2ccc3ccccc3c2)o1
231 | CCCCNc1cc(C(=O)O)cc(S(N)(=O)=O)c1Oc1ccccc1
270 to 320 | N#Cc1ccc2c(c1)[N+]([O-])=C(c1cccc(C3=[N+]([O-])c4cc(C#N)ccc4C3=O)c1)C2=O
179 to 180 | O=Cc1c[nH]c2cccc(Br)c12
95.5 | O=C(Oc1ccc2ccccc2c1)c1ccccc1O
118 | CC1CCCC(C)N1C(=O)COC(=O)c1ccccc1 (centres undefined)
180 | O=c1[nH]c(=O)n(C2CCC(CO)O2)cc1Br (centres undefined)
112 to 113 | Cc1sc2ncnc(Cl)c2c1C
130 | O=c1c2c(oc3c1CCCC3)CCCC2
41 to 42 | Cn1nc(C(F)(F)F)c(C=O)c1Cl
160 to 170 | O=c1onc2cnc3ccccc3n12
123 | O=C(O)c1cc(F)c(F)c(Br)c1F
212 | COc1ccc(C=CC(=O)Nc2ccccc2C(=O)O)cc1OC
159 to 161 | Nc1c(C(=O)O)sc2nc(-c3ccccc3)cc(C(F)(F)F)c12
180 | CC(=O)Oc1ccc2c(c1)CCC1C2CCC2(C)C(=O)C(OC(C)=O)CC12 (centres undefined)
157 to 161 | O=C(O)[C@@H]1CCCC[C@H]1C(=O)c1ccc(Cl)cc1 (relative stereo)

melting point [°C] | SMILES
41 to 43 | Cc1onc(-c2ccccc2)c1C=O
129 to 131 | Cc1cccc(Cn2nc(C(C)(C)C)cc2-c2nnc(S)o2)c1
205 | Cc1ccc(C(=O)c2ccccc2C(=O)O)cc1[N+](=O)[O-]
207 to 209 | CC(CCC(=O)O)C1CCC2C3C(=O)CC4CC(C(=O)O)CCC4(C)C3CC(C(=O)O)C12C (centres undefined)
166 | CC(=O)OC1CC[C@@]2(C)C(CC[C@@H]3[C@@H]2CC[C@@]2(C)[C@H]3CC[C@@]2(C#Cc2ccccc2)OC(C)=O)C1 (some centres undefined)
84 | CCOC(=O)c1sc(-c2cccc(N)c2)nc1C
226 | Cc1c(Nc2ncccc2C(=O)O)cccc1C(F)(F)F
222 | CC=CC1=C(C(=O)O)N2C(=O)C(NC(=O)C(N)c3ccc(O)cc3)C2SC1 (centres undefined)
84 | Oc1ccc2ccccc2c1Br
220 to 222 | O=C1CC(c2ccccc2)Oc2ccc(O)cc21 (centres undefined)
216 | Cc1ccc(C2(c3ccc(C)o3)C(=O)Nc3ccccc32)o1
209 | CC12CCC(/C(=N/O)C/C1=N\O)C2(C)C (centres undefined)
146 to 148 | Cc1cc(C(=O)O)oc1C
221 | Cc1c(C)c(C)c2c(=O)n3ccccc3cc2c1C
155 to 156 | CCOC(=O)CON=C(c1cc2ccccc2o1)C1CC(C)(c2ccccc2)C1 (centres undefined)
215 | O=C(O)C=CC=Cc1ccc2c(c1)OCO2
106 | Cc1c([N+](=O)[O-])cc(C(=O)N2CCCCCC2)cc1[N+](=O)[O-]
235 | COC(=O)c1ccc(/C=C/c2ccc(C(=O)OC)cc2)cc1
125 | O=C(O)c1cc(F)cc([N+](=O)[O-])c1
207 to 210 | O=C1CCCc2c(O)cccc21
160 to 163 | CC(=O)Nc1ccc(Br)cc1C
213 to 214 | CCc1c(C)nc(N)nc1Cl
166 to 168 | ON=C1CCCc2nonc21
110 | COc1cc(N)c(Cl)cc1C(=O)NC1CCN(CCCOc2ccc(F)cc2)CC1OC (centres undefined)
46 | CCCCCCc1ccc(C(=O)Oc2ccc(C#N)cc2)cc1
